Experiments:
GPx = GPx activity in rat paw tissue homogenate (carrageenan model); format: in vivo; settings: for GPx (U/gm Tissue): paw tissue 5 h after carrageenan
Description: (§1) The levels of inflammatory mediators (IL-1β, TNF-α, and PGE2) in rat paw tissue homogenate were measured using the following Kits: Rat TNF-α (Tumor Necrosis Factor Alpha) ELISA Kit from Elabscience® Company, Houston, TX, USA, Interleukin 1 Beta (IL-1b) Organism Species: Rattus norvegicus (Rat) from Cloud Clone Crop Company and Rat PGE2 (Prostaglandin E2) ELISA Kit from Fine test® company Hubei, China. In addition, oxidative stress parameters in rat paw tissue homogenate were measured using superoxide dismutase, glutathione peroxidase, and catalase Kits from the Biodiagnostic company, Birmingham, UK.
(§2) Rats were slaughtered, and their paw tissues were gathered and weighed five hours after the carrageenan was administered. The tissues underwent processing after being fixed in 10% formalin. Rat paw tissue was homogenized, and its oxidative stress indices (SOD, CAT, and GPx) as well as the levels of inflammatory mediators (IL-1β, TNF-α, and PGE2) were measured.

TNF-α = TNF-α in rat paw tissue homogenate (carrageenan model); format: in vivo; settings: doses of 20 and 40 mg/kg; compared to the vehicle control group
Description: as §1, §2

SOD = SOD activity in rat paw tissue homogenate (carrageenan model); format: in vivo; settings: for SOD (U/gm Tissue): paw tissue 5 h after carrageenan
Description: as §1, §2

CAT = CAT activity in rat paw tissue homogenate (carrageenan model); format: in vivo; settings: for CAT (U/gm Tissue): paw tissue 5 h after carrageenan
Description: as §1, §2

dermal inflammation = experiment: Histopathological assessment of paw skin tissue (carrageenan model); format: in vivo, rat; settings: 5 h after carrageenan
Excerpt: Five hours following the carrageenan injection, tissue specimen samples from the paw skin tissue of every group under study were removed for histological examination. Prior to being submerged in paraffin blocks, they were fixed in a 10% formalin solution and stained with hematoxylin-eosin. Using a microtome, paraffin sections with a thickness of 5 µm were cut, and hematoxylin and eosin were frequently applied to the sections. Microscopically, these tissue slices were inspected. Consequently, the sections were examined under a light microscope; on the other hand, photos taken with a digital camera (Canon Power-shot D10) recorded the progression of paw oedema.

[1] = tested on: carrageenan-induced paw oedema; experiment: Carrageenan-induced paw oedema; format: in vivo; settings: rat
Description: Adult albino rats 180-220 g of both sexes used in the investigation were acquired from the Mansoura University Faculty of Pharmacy's Animal House. Standard laboratory diet and water were provided, and they were housed in cages maintained at a constant temperature of 22 ± 2 °C. The Animal Care and Use Committee (MU-ACUC) of Mansoura University, Egypt, has approved all procedures involving animals with code number: […] Throughout the experiment, medications and extracts were given orally in doses of 1 mL/100 g of the rat's body weight after being solubilized in carboxymethyl cellulose (CMC) in order to create a suspension formula. In this test, rats were divided into six groups, with each group containing 5 animals. Group-1: […] Group-2: Positive control (carrageenan-induced oedema, Sigma (St. Louis, MO, USA)) without any treatment. […] Group-4: […] extract of Lactuca sativa was administered at a 2 g/kg dose. Group-5: Compound (1) is administered at a dose of 20 mg/kg. Group-6: Compound (1) at a dose of 40 mg/kg. Group-7: Combination of standard and compound (1) at doses of (10 + 20) mg/kg, respectively. […] Using a digital vernier calliper, the swelling of the paw that had been injected with carrageenan was measured prior to injection as well as 1, 2, 3, 4, and 5 h following the treatment's induction. The percentage inhibition of oedema in the test animals treated with the extract compared to the carrageenan control group was used to calculate the anti-inflammatory activity. The formula […] was used to calculate the percentage inhibition of inflammation, where “dt” represents the difference in paw volume in the drug-treated group and “dc” represents the difference in paw volume relative to the control group. Moreover, “I” represents the suppression of inflammation.

[2] = tested on: SARS-CoV-2 main protease Mpro or 3CLpro; settings: cited from earlier work
[3] = tested on: IL-6 production in TNF-a-stimulated MG-63 cells; settings: cited from earlier work
P. aeruginosa = experiment: Antimicrobial screening, zone of inhibition; format: cell-based; settings: Table 1
Description: The procedure was performed according to Stylianakis et al.. A comparison of the extract’s zone of inhibition to that of a reference antibiotic’s activity index was determined using the following equation:Activity index = (the inhibition zone of extract/the inhibition zone of the standard) × 100

S. aureus = experiment: Antimicrobial screening, zone of inhibition; format: cell-based; settings: Table 1
Description: The procedure was performed according to […] et al.. A comparison of the extract's zone of inhibition to that of a reference antibiotic's activity index was determined using the following equation:Activity index = (the inhibition zone of extract/the inhibition zone of the standard) × 100

[4] = 40 mg/kg, compared to the control group
[5] = 1 mg/mL, relative to ciprofloxacin

## NC(CO)C(O)c1ccc2c(c1)OCO2 (centres unmarked) [Compound 1, 1,3-propanediol-2-amino-1-(3′,4′-methylenedioxyphenyl)]
GPx; [4]
  GPx activity restored: 73.17%
GPx; 20 mg/kg
  GPx (U/gm Tissue): 77.65 ± 3.18 U/gm Tissue
GPx; 40 mg/kg
  GPx (U/gm Tissue): 86.75 ± 6.01 U/gm Tissue
TNF-α
  TNF-α level in paw tissue: significant reduction
SOD; [4]
  SOD activity restored: 71.43%
SOD; 20 mg/kg
  SOD (U/gm Tissue): 118.35 ± 1.06 U/gm Tissue
SOD; 40 mg/kg
  SOD (U/gm Tissue): 135.05 ± 11.67 U/gm Tissue
CAT; [4]
  CAT activity restored: 72.08%
CAT; 20 mg/kg
  CAT (U/gm Tissue): 1.50 ± 0.19 U/gm Tissue
CAT; 40 mg/kg
  CAT (U/gm Tissue): 2.04 ± 0.26 U/gm Tissue
Dermal inflammation; Group 6, 40 mg/kg
  Histopathology of paw skin (H&E): substantial reduction in dermal inflammation
Dermal inflammation; oral 20 mg/kg
  Histopathology of paw skin (H&E): moderate decrease in both inflammation and leukocyte infiltration
[1]; 1 h, dose 20 mg/kg oral
  % Inhibition (%I) of paw oedema: 10.25%
  Increase in Paw Oedema: 1.05 ± 0.20 mL
[1]; 1 h, dose 40 mg/kg oral
  % Inhibition (%I) of paw oedema: 16.32%
  Increase in Paw Oedema: 0.77 ± 0.28 mL
[1]; 2 h, dose 20 mg/kg oral
  % Inhibition (%I) of paw oedema: 23.51%
  Increase in Paw Oedema: 1.81 ± 0.44 mL
[1]; 2 h, dose 40 mg/kg oral
  % Inhibition (%I) of paw oedema: 27.07%
  Increase in Paw Oedema: 1.59 ± 0.22 mL
[1]; 3 h, dose 20 mg/kg oral
  % Inhibition (%I) of paw oedema: 23.77%
  Increase in Paw Oedema: 2.26 ± 0.28 mL
[1]; 3 h, dose 40 mg/kg oral
  % Inhibition (%I) of paw oedema: 26.1%
  Increase in Paw Oedema: 2.11 ± 0.29 mL
[1]; 4 h, dose 20 mg/kg oral
  % Inhibition (%I) of paw oedema: 45.36%
  Increase in Paw Oedema: 2.18 ± 0.74 mL
[1]; 4 h, dose 40 mg/kg oral
  % Inhibition (%I) of paw oedema: 55.39%
  Increase in Paw Oedema: 1.78 ± 0.45 mL
[1]; 5 h, dose 20 mg/kg oral
  % Inhibition (%I) of paw oedema: 57.63%
  Increase in Paw Oedema: 1.75 ± 0.46 mL
[1]; 5 h, dose 40 mg/kg oral
  % Inhibition (%I) of paw oedema: 63.92%
  Increase in Paw Oedema: 1.49 ± 0.49 mL
[2]
  inhibitory activity against SARS-CoV-2 main protease: moderate inhibitory activities
[3]
  inhibition of IL-6 production: strong inhibitory
P. aeruginosa; Pseudomonas aeruginosa, isolated compounds 1 mg/mL, read-out: P. aeruginosa Diameter of Inhibition Zone (mm)
  zone of inhibition at 1000 µg/mL: 3.8 ± 0.2 mm
P. aeruginosa; [5]
  P. aeruginosa %Activity Index: 16.5%
S. aureus; Staphylococcus aureus, isolated compounds 1 mg/mL, read-out: S. aureus Diameter of Inhibition Zone (mm)
  zone of inhibition at 1000 µg/mL: 6.9 ± 0.1 mm
S. aureus; [5]
  S. aureus %Activity Index: 28.9%

Reference: article PMC11507441, “Oilseed Cakes: A Promising Source of Antioxidant, and Anti-Inflammatory Agents—Insights from Lactuca sativa” (International Journal of Molecular Sciences, 2024)
